Reference: patent US10947252B2, “Inhibitors of KEAP1-Nrf2 protein-protein interaction” (Janssen Pharmaceutica NV, priority 2018, dated 2021)

How the values were obtained:
[1] = molecular target: Kelch domain of human KEAP1 (321-624 aa) (Homo sapiens (Human), UniProt Q14145); assay: KEAP1 KELCH ThermoFluor binding assay; conditions: KEAP Kelch […], 1,8-ANS, pH 7.0, average of results obtained, read-out: Tf Kd;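 note: Ligand-induced melting temperature shift of E. coli-expressed KEAP1 Kelch protein, Kd estimated from concentration-response curves of ΔTm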
[2] = test system: Glo-Response ARE-luc2P HEK293 cell line; assay: ARE luciferase reporter cell-based assay; conditions: Homo sapiens, HEK293, 24 h, average of results obtained;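 note: luciferase signal tracks Nrf2 activation of the ARE once compounds disrupt KEAP1-Nrf2 binding, read with One-Glo reagent, DMSO serving as low control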

Sequence of Kelch domain of human KEAP1 (321-624 aa) (Q14145 321-624): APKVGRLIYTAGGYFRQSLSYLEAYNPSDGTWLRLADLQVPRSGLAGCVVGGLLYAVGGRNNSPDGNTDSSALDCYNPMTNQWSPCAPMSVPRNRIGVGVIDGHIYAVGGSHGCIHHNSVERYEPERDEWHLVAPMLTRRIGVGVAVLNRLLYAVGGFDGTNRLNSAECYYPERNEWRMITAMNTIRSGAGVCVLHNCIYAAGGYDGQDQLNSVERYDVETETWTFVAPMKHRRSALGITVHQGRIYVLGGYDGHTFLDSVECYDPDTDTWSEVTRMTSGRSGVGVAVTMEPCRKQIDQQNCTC

| SMILES | Kd [1] [nM] | EC50 [2] [nM] |
| --- | --- | --- |
| Cc1ccc([C@H](c2ccn3c(C(F)(F)F)nnc3c2C)C(C)(C)C(=O)O)cc1CN1CC(C)(C)Oc2ncccc2S1(=O)=O (single isomer, unassigned) [Example 431, (*R)-3-(3-((4,4-dimethyl-1,1-dioxido-3,4-dihydro-2H-pyrido[2,3-b][1,4,5]oxathiazepin-2-yl)methyl)-4-methylphenyl)-2,2-dimethyl-3-(8-methyl-3-(trifluoromethyl)-[1,2,4]triazolo[4,3-a]pyridin-7-yl)propanoic Acid] | < 1 | 2.84 |
| Cc1ccc([C@H](c2ccn3c(C(F)F)nnc3c2C)C(C)(C)C(=O)O)cc1CN1CC2(CCOCC2)Oc2nc(OCCN3CCOCC3)ccc2S1(=O)=O (single isomer, unassigned) [Example 580, (*R)-3-(3-(Difluoromethyl)-8-methyl-[1,2,4]triazolo[4,3-a]pyridin-7-yl)-2,2-dimethyl-3-(4-methyl-3-((7′-(2-morpholinoethoxy)-1′,1′-dioxido-2,3,5,6-tetrahydrospiro[pyran-4,4′-pyrido[2,3-b][1,4,5]oxathiazepin]-2′(3′H)-yl)methyl)phenyl)propanoic Acid] | 1640 | 3240 |
| Cc1cc2cc([C@@H](CC(=O)O)c3ccc(C)c(CN4C[C@@H]5CCCN5c5ncccc5S4(=O)=O)c3)n(C)c2nn1 (single isomer, unassigned) [Example 438, (*S)-3-(3,7-Dimethyl-7H-pyrrolo[2,3-c]pyridazin-6-yl)-3-(3-(((S)-5,5-dioxido-7a,8,9,10-tetrahydropyrido[2,3-f]pyrrolo[2,1-d][1,2,5]thiadiazepin-6(7H)-yl)methyl)-4-methylphenyl)propanoic Acid] | 234 | > 20000 |
| CCn1nnc2c(C)c([C@@H](c3cnc(C)c(CN4CC5(CCOCC5)Oc5ncccc5S4(=O)=O)c3)C(C)(C)C(=O)O)ccc21 (single isomer, unassigned) [Example 59, (*S)-3-(5-((1′,1′-Dioxido-2,3,5,6-tetrahydrospiro[pyran-4,4′-pyrido[2,3-b][1,4,5]oxathiazepin]-2′(3′H)-yl)methyl)-6-methylpyridin-3-yl)-3-(1-ethyl-4-methyl-1H-benzo[d][1,2,3]triazol-5-yl)-2,2-dimethylpropanoic Acid] | 1.2 | 116 |
| Cc1ccc([C@@H](c2ccn3c(C(F)(F)F)nnc3c2C)C(C)(C)C(=O)O)cc1CN1CC2(CC2)Oc2nc(OCCN3CCCC3)c(C)cc2S1(=O)=O (single isomer, unassigned) [Example 373, (*S)-2,2-Dimethyl-3-(4-methyl-3-((8′-methyl-1′,1′-dioxido-7′-(2-(pyrrolidin-1-yl)ethoxy)spiro[cyclopropane-1,4′-pyrido[2,3-b][1,4,5]oxathiazepin]-2′(3′H)-yl)methyl)phenyl)-3-(8-methyl-3-(trifluoromethyl)-[1,2,4]triazolo[4,3-a]pyridine-7-yl)propanoic Acid] | < 1 | 5.4 |
| Cc1ccc([C@@H](CC(=O)O)c2ccn3c(C(F)(F)F)nnc3c2C)cc1CN1CC(C)(C)Oc2ccccc2S1(=O)=O (single isomer, unassigned) [Example 286, (*R)-3-(3-((4,4-Dimethyl-1,1-dioxido-3,4-dihydro-2H-benzo[b][1,4,5]oxathiazepin-2-yl)methyl)-4-methylphenyl)-3-(8-methyl-3-(trifluoromethyl)-[1,2,4]triazolo[4,3-a]pyridin-7-yl)propanoic Acid] | 3.39 | 504 |
| Cc1cnc2c(c1)S(=O)(=O)N(Cc1cc([C@H](CC(=O)O)c3ccn4c(C(F)(F)F)nnc4c3C)cnc1C)CC1(CC1)O2 (single isomer, unassigned) [Example 565, (*R)-3-(8-Methyl-3-(trifluoromethyl)-[1,2,4]triazolo[4,3-a]pyridin-7-yl)-3-(6-methyl-5-((8′-methyl-1′,1′-dioxidospiro[cyclopropane-1,4′-pyrido[2,3-b][1,4,5]oxathiazepin]-2′(3′H)-yl)methyl)pyridin-3-yl)propanoic Acid] | 59.4 | > 20000 |
| Cc1ccc([C@H](c2ccn3c(C(F)F)nnc3c2C)C(C)(C)C(=O)O)nc1CN1CC2(COC2)Oc2ncccc2S1(=O)=O (single isomer, unassigned) [Example 611, (*R)-3-(3-(Difluoromethyl)-8-methyl-[1,2,4]triazolo[4,3-a]pyridin-7-yl)-3-(6-((1′,1′-dioxidospiro[oxetane-3,4′-pyrido[2,3-b][1,4,5]oxathiazepin]-2′(3′H)-yl)methyl)-5-methylpyridin-2-yl)-2,2-dimethylpropanoic Acid] | 12800 | 574 |
| Cc1ccc([C@@H](c2ccn3c(C(F)F)nnc3c2C)C(C)(C)C(=O)O)cc1CN1CC2(CC2)Oc2nc(OCCN3CCCCC3)c(C)cc2S1(=O)=O (single isomer, unassigned) [Example 374, (*S)-3-(3-(Difluoromethyl)-8-methyl-[1,2,4]triazolo[4,3-a]pyridine-7-yl)-2,2-dimethyl-3-(4-methyl-3-((8′-methyl-1′,1′-dioxido-7′-(2-(piperidin-1-yl)ethoxy)spiro[cyclopropane-1,4′-pyrido[2,3-b][1,4,5]oxathiazepin]-2′(3′H)-yl)methyl)phenyl)propanoic Acid] | < 1 | 4.8 |
| Cc1ccc([C@@H](CC(=O)O)c2ccn3c(C(F)(F)F)nnc3c2C)cc1CN1C[C@@H]2CN(C)CCN2c2ncccc2S1(=O)=O (single isomer, unassigned) [Example 179, (*R)-3-(4-Methyl-3-(((*S)-9-methyl-5,5-dioxido-7,7a,8,9,10,11-hexahydro-6H-pyrazino[2,1-d]pyrido[2,3-f][1,2,5]thiadiazepin-6-yl)methyl)phenyl)-3-(8-methyl-3-(trifluoromethyl)-[1,2,4]triazolo[4,3-a]pyridin-7-yl)propanoic Acid] | 58 | 2040 |
| Cc1ccc([C@@H](c2ccn3c(C(F)(F)F)nnc3c2C)C(C)(C)C(=O)O)nc1CN1CC2(CCOCC2)Oc2nc(OCCN3CCOCC3)ccc2S1(=O)=O (single isomer, unassigned) [Example 325, (*S)-2,2-Dimethyl-3-(8-methyl-3-(trifluoromethyl)-[1,2,4]triazolo[4,3-a]pyridin-7-yl)-3-(5-methyl-6-((7′-(2-morpholinoethoxy)-1′,1′-dioxido-2,3,5,6-tetrahydrospiro[pyran-4,4′-pyrido[2,3-b][1,4,5]oxathiazepin]-2′(3′H)-yl)methyl)pyridin-2-yl)propanoic Acid] | < 1 | 17.2 |
| CCn1nnc2c(C)c([C@H](CC(=O)O)c3ccc(C)c(CN4C[C@H]5CCCCN5c5ncccc5S4(=O)=O)n3)ccc21 (single isomer, unassigned) [Example 305, (*S)-3-(6-(((*R)-5,5-Dioxido-7,7a,8,9,10,11-hexahydro-6H-dipyrido[2,1-d:2′,3′-][1,2,5]thiadiazepin-6-yl)methyl)-5-methylpyridin-2-yl)-3-(1-ethyl-4-methyl-1H-benzo[d][1,2,3]triazol-5-yl)propanoic Acid] | < 1 | 1.7 |
| Cc1ccc([C@H](c2ccn3c(C(F)(F)F)nnc3c2C)C(C)(C)C(=O)O)cc1CN1CC2(CCOCC2)Oc2nc(N[C@@H](C)CN3CCOCC3)c(C)cc2S1(=O)=O (single isomer, unassigned) [Example 363, (*R)-2,2-Dimethyl-3-(4-methyl-3-((8′-methyl-7′-(((S-1-morpholinopropan-2-yl)amino)-1′,1′-dioxido-2,3,5,6-tetrahydrospiro[pyran-4,4′-pyrido[2,3-b][1,4,5]oxathiazepin]-2′(3′H)-yl)methyl)phenyl)-3-(8-methyl-3-(trifluoromethyl)-[1,2,4]triazolo[4,3-a]pyridine-7-yl)propanoic Acid] | < 1 | 12.9 |
| Cc1ccc([C@H](c2cc(C)n3c(C(F)(F)F)nnc3c2C)C(C)C(=O)O)cc1CN1C[C@@H]2CCCCN2c2ncccc2S1(=O)=O (relative stereo) [Example 133, (3*R)-3-(5,8-Dimethyl-3)-(trifluoromethyl)-[1,2,4-triazolo[4,3-a]pyridine-7-yl)-3-(3-(((*S)-5,5-dioxido-7,7a,8,9,10,11-hexahydro-6H-dipyrido[2,1-d:2′,3′-f][1,2,5]thiadiazepin-6-yl)methyl)-4-methylphenyl)-2-methylpropanoic Acid] | < 1 | 2 |
| Cc1cc2cc(C(CC(=O)O)c3ccc(C)c(CN4C[C@@H]5CCCCN5c5ncccc5S4(=O)=O)c3)n(C)c2nn1 (mixture of isomers) [Example 440, 3-(3,7-Dimethyl-7H-pyrrolo[2,3-c]pyridazin-6-yl)-3-(3-(((S)-5,5-dioxido-7,7a,8,9,10,11-hexahydro-6H-dipyrido[2,1-d:2′,3′-f][1,2,5]thiadiazepin-6-yl)methyl)-4-methylphenyl)propanoic Acid] | < 1 | 714 |
| Cc1ccc([C@@H](c2ccn3c(C(F)F)nnc3c2C)C(C)(C)C(=O)O)cc1CN1CC2(CCOCC2)Oc2nc(OCCN3CCCC3)c(C)cc2S1(=O)=O (single isomer, unassigned) [Example 377, (*S)-3-(3-(Difluoromethyl)-8-methyl-[1,2,4]triazolo[4,3-a]pyridine-7-yl)-2,2-dimethyl-3-(4-methyl-3-((8′-methyl-1′,1′-dioxido-7′-(2-(pyrrolidin-1-yl)ethoxy)-2,3,5,6-tetrahydrospiro[pyran-4,4′-pyrido[2,3-b][1,4,5]oxathiazepin]-2′(3′H)-yl)methyl)phenyl)propanoic Acid] | < 1 | 44.9 |
| Cc1ccc([C@@H](CC(=O)O)c2ccc3c(nnn3C3CC3)c2C)cc1CN1C[C@]2(C)CCCN2c2ncccc2S1(=O)=O (single isomer, unassigned) [Example 220, (*R)-3-(1-Cyclopropyl-4-methyl-1H-benzo[d][1,2,3]triazol-5-yl)-3-(4-methyl-3-(((*S)-7a-methyl-5,5-dioxido-7a,8,9,10-tetrahydropyrido[2,3-f]pyrrolo[2,1-d][1,2,5]thiadiazepin-6(7H)-yl)methyl)phenyl)propanoic Acid] | < 1 | 61 |
